In ChEMBL document CHEMBL5653631, “A Potent and Selective ULK1 Inhibitor Suppresses Autophagy and Sensitizes Cancer Cells to Nutrient Stress” (iScience, 2018) one finds EC50, inhibition and fold change (FC) data, which are given here for two compounds.

Experiment [1] concerns the target Serine/threonine-protein kinase ULK1 (Homo sapiens, UniProt O75385). Briefly: Inhibition of ULK1 phosphorylation at Ser15 residue in HEK293 cells incubated for 1 hr by chemiluminescence based immunoblotting analysis. It is filed as cell-based, HEK293T. (In western blotting, separated proteins are transferred to a membrane and probed.)
The target of experiment [2] is Protein kinase C delta type (Homo sapiens) (UniProt Q05655). Nature of the experiment: Inhibition of human recombinant PKCd at 15 nM in presence of ATP by radiometric assay relative to control.
Experiment [3] deals with Tyrosine-protein kinase SYK (Homo sapiens) (UniProt P43405). Nature of the experiment: Inhibition of human recombinant SYK at 15 nM related to control ULK1.
In experiment [4] the target is T1, Mitogen-activated protein kinase kinase kinase 2 (Homo sapiens) (UniProt Q9Y2U5).
T1 sequence (whole entry): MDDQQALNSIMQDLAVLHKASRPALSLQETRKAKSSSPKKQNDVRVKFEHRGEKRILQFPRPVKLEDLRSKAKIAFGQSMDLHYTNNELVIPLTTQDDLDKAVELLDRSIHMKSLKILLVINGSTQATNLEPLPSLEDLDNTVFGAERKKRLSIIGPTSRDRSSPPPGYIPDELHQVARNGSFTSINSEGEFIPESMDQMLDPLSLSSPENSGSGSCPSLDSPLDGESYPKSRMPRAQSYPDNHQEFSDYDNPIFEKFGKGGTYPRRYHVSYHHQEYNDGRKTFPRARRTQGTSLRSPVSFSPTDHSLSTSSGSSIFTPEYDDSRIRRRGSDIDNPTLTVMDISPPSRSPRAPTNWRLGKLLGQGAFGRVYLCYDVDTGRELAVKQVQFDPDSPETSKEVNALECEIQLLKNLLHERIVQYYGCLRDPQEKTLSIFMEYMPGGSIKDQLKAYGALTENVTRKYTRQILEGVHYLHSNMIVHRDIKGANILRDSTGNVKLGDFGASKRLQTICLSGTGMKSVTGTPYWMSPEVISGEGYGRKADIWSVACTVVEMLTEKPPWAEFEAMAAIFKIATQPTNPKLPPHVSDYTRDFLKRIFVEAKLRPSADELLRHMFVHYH
Briefly: Inhibition of human recombinant MAP3K2 at 500 nM in presence of ATP by radiometric assay relative to control.

For experiment [5], the target named is Ephrin type-A receptor 7 (Homo sapiens) (UniProt Q15375). Briefly: Inhibition of human recombinant EphA7 at 500 nM related to control ULK1.
In experiment [6] the target is Serine/threonine-protein kinase MARK2 (Homo sapiens) (UniProt Q7KZI7). Briefly: Inhibition of human recombinant MARK2 at 500 nM related to control ULK1.
The target of experiment [7] is Serine/threonine-protein kinase mTOR (Homo sapiens) (UniProt P42345). Briefly: Inhibition of human recombinant FRAP at 500 nM related to control ULK1.
Experiment [8] concerns the target Calcium/calmodulin-dependent protein kinase type 1G (Homo sapiens) (UniProt Q96NX5). Briefly: Inhibition of human recombinant CaMK1g at 500 nM related to control ULK1.
The target of experiment [9] is Tyrosine-protein kinase FRK (Homo sapiens) (UniProt P42685). Briefly: Inhibition of human recombinant FRK at 500 nM related to control ULK1.
In experiment [10] the target is T2, Serine/threonine-protein kinase PLK4 (Homo sapiens) (UniProt O00444).
T2 sequence (whole entry): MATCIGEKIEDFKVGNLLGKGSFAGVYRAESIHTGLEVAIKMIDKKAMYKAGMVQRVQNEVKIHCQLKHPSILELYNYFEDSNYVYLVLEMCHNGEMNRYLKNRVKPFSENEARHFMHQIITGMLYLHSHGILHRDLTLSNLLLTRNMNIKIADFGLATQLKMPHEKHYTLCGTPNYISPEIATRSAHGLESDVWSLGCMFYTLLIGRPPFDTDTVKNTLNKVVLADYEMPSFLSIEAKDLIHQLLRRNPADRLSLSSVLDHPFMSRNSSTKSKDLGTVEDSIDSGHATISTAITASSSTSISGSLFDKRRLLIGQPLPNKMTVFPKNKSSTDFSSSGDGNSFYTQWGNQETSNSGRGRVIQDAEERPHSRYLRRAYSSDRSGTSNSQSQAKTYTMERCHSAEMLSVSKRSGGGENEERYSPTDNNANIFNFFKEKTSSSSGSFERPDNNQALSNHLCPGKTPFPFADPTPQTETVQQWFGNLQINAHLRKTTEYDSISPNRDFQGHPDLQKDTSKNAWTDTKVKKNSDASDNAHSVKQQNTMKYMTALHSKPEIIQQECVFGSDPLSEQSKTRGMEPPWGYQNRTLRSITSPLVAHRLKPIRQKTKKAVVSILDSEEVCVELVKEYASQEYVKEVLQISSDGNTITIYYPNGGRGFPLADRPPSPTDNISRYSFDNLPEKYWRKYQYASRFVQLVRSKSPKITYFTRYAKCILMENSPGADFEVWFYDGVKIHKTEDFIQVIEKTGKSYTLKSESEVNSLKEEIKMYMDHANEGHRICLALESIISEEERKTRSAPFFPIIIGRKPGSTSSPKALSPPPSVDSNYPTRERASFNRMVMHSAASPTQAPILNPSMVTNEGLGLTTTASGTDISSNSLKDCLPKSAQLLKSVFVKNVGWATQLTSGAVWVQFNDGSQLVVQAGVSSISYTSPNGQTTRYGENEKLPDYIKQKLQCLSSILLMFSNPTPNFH
Nature of the experiment: Inhibition of human recombinant PLK4 at 500 nM in presence of ATP by radiometric assay relative to control.

Experiment [11] concerns the target Proto-oncogene tyrosine-protein kinase Src (Homo sapiens) (UniProt P12931). Nature of the experiment: Inhibition of human recombinant SRC at 500 nM in presence of ATP by radiometric assay relative to control.

The structures appear in SMILES notation.

Tyrosine-protein kinase FRK (Homo sapiens), sequence (P42685 whole entry): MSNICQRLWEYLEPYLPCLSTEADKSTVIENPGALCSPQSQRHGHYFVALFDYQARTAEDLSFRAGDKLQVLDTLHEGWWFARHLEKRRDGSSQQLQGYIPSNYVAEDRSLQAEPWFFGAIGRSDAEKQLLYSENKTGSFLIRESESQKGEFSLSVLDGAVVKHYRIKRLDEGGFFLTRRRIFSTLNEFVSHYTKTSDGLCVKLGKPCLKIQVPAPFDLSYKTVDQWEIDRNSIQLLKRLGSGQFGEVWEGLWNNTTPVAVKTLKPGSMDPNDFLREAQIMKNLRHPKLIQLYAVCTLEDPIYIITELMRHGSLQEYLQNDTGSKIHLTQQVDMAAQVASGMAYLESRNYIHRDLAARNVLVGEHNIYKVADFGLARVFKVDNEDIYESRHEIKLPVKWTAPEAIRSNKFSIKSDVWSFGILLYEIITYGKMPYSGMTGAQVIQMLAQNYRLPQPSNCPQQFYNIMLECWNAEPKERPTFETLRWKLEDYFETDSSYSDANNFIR
Serine/threonine-protein kinase ULK1, sequence (O75385 whole entry): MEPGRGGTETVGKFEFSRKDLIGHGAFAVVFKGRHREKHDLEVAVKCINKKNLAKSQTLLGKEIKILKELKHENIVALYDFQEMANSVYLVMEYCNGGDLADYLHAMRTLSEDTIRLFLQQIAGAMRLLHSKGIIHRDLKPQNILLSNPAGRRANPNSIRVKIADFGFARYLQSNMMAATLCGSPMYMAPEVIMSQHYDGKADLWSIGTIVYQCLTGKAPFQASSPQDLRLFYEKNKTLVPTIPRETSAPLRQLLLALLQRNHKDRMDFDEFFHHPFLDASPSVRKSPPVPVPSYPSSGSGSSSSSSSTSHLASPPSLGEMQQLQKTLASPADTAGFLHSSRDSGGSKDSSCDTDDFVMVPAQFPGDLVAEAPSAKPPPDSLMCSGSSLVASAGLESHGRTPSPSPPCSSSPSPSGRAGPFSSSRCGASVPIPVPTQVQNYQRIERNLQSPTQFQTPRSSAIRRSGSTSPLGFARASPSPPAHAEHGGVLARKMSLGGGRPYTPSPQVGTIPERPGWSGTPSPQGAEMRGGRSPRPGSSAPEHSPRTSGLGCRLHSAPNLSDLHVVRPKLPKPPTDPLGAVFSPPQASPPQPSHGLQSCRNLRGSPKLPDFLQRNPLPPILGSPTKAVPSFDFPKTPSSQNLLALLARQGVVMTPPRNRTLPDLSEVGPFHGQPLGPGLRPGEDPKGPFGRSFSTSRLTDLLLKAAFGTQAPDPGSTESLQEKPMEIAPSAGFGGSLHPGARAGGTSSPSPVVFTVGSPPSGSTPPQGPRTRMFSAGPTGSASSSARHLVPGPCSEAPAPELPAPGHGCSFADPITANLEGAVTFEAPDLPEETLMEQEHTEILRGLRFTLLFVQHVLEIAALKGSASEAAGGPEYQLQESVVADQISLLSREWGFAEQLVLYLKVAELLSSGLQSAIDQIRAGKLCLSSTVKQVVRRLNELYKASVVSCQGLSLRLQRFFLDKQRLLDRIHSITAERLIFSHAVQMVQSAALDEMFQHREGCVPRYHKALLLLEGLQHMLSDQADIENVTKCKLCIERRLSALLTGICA
Protein kinase C delta type (Homo sapiens), sequence (Q05655 whole entry, looked up): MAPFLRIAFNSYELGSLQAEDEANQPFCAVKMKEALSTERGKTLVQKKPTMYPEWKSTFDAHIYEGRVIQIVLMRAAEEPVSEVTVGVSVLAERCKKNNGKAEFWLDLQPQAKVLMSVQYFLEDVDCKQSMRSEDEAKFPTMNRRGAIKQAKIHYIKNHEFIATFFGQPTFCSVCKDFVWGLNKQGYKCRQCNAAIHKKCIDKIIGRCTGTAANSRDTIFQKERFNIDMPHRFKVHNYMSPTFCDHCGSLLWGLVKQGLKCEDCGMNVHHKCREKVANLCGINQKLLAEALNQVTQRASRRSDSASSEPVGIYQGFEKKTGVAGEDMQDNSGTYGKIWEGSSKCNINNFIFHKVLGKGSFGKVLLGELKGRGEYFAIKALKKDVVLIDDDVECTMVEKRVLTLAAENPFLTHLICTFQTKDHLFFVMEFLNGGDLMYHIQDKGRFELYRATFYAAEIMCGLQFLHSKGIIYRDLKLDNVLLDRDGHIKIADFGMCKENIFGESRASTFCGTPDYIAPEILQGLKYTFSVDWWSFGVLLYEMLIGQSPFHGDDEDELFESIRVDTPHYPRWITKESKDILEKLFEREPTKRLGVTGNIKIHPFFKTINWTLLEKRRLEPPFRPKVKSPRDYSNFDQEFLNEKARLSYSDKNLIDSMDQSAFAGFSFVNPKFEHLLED
Proto-oncogene tyrosine-protein kinase Src (Homo sapiens), sequence (P12931 2-536 limits assumed): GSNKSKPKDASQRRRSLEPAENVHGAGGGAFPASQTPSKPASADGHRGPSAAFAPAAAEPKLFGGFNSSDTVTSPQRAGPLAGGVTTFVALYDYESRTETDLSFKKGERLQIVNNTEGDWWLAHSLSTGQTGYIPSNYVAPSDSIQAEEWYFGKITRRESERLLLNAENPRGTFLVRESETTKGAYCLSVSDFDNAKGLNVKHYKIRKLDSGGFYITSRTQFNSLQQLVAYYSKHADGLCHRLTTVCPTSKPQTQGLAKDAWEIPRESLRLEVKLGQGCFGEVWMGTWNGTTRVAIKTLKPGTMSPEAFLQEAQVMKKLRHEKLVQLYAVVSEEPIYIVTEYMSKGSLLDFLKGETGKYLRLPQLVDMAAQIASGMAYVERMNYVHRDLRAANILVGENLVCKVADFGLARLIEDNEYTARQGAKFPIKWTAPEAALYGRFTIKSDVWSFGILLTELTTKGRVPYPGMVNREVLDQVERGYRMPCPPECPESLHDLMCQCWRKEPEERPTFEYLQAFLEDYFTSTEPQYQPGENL
Ephrin type-A receptor 7 (Homo sapiens), sequence (Q15375 28-998 limits assumed): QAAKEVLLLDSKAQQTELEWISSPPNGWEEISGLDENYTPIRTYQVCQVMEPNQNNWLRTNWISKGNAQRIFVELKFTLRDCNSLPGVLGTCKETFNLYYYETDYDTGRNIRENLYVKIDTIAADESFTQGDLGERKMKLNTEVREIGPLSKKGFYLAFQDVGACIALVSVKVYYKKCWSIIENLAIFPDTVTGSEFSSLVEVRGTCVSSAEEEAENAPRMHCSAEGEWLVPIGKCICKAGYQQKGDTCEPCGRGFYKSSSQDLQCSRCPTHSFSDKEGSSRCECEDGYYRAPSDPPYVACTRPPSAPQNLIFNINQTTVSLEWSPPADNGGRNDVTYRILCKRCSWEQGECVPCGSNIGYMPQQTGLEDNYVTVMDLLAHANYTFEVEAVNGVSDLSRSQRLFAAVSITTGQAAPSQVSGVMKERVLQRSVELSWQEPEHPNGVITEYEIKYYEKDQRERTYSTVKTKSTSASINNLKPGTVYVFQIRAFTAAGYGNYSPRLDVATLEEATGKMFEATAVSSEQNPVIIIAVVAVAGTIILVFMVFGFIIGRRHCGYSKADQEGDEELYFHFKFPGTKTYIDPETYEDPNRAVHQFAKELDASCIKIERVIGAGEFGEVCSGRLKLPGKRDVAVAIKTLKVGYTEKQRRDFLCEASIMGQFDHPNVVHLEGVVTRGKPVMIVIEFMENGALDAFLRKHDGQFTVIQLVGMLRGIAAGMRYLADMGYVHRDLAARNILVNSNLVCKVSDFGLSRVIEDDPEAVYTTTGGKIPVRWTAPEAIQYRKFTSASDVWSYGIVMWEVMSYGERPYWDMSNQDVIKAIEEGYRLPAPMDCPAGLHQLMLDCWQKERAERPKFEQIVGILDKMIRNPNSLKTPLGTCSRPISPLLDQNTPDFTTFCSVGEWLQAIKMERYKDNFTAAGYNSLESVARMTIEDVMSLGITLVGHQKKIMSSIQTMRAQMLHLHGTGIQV
Calcium/calmodulin-dependent protein kinase type 1G (Homo sapiens), sequence (Q96NX5 whole entry): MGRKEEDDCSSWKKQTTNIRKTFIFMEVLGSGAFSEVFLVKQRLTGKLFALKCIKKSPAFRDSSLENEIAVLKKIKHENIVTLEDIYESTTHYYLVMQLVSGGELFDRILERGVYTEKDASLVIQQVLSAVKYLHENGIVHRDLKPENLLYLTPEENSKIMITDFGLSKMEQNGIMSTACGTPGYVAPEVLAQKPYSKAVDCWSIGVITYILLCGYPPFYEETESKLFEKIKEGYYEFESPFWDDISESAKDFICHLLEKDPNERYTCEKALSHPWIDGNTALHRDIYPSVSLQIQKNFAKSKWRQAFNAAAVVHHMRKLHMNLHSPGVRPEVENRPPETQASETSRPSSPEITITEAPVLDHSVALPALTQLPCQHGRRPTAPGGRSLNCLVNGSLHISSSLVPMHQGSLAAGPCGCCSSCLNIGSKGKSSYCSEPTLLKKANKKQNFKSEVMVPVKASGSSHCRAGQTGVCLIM
Serine/threonine-protein kinase MARK2 (Homo sapiens), sequence (Q7KZI7 whole entry): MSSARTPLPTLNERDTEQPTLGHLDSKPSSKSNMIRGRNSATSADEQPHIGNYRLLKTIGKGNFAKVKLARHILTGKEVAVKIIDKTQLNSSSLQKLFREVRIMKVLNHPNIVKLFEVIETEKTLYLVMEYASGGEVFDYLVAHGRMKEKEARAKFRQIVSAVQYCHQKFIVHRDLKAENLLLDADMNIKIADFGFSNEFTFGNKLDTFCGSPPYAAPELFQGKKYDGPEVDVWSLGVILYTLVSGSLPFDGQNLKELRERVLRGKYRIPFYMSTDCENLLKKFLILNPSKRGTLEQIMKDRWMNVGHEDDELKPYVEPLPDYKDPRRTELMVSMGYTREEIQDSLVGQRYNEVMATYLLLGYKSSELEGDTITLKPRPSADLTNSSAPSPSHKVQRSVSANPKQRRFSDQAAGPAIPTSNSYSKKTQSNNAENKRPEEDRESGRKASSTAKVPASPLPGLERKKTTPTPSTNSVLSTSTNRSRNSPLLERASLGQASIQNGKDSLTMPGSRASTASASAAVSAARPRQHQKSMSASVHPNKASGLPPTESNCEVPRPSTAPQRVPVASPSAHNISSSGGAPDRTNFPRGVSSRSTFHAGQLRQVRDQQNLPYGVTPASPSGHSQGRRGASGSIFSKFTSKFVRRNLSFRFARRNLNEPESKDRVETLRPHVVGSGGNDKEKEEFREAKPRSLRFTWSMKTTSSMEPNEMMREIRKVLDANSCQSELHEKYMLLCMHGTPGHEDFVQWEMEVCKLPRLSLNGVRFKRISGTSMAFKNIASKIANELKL

As to `CC(C)[C@H](NC(=O)c1cc(-c2cnn3cc(-c4ccc(OCCN5CCCCC5)cc4)cnc23)cs1)C(F)(F)F`, in experiment [1], the EC50 (commonly the concentration at which the effect is half-maximal) came to 0.083 µM. The inhibition – broadly, how much of the control response was suppressed – in experiment [2] was 0%. For the same compound, in experiment [3], the fold change (FC) was determined as 0.

With `CNC(=O)c1ccccc1Oc1nc(Nc2cc(OC)c(OC)c(OC)c2)ncc1Br`, the inhibition was found to be 3% in experiment [4], 46% in experiment [10] and 19% in experiment [11]. Also, the fold change (FC) in [5] is 0; in [6], 0.68; in experiment [7], 0; in [8], 0.08; in experiment [9], 0.12.
